# Measured values from patent US20100292229A1, “TRYPHOSTIN-ANALOGS FOR THE TREATMENT OF CELL PROLIFERATIVE DISEASES” (The Board of Regents of the University of Texas System, priority 2006, published 2010).
# Where two headings read alike, the source gives them in different places.
# Test system: MM-1 cells
# Assay: MTT assay of cell growth and survival, MM-1 cells
# Type: cell-based
# Description: All compounds are tested for purity (HPLC, NMR) and the calculated molecular weight is used to make up a 10 mM stock solution of each compound (in 100% dimethylsulfoxide or 50% dimethylsulfoxide:50% polyethylene glycol 300). Compounds are diluted into cell culture media consisting of RPMI 1640 with 10% fetal bovine serum to a final starting concentration of 10 μM. [Highest final DMSO content=0.1%.]. Tumor cells (20,000 for non-adherent cells; 5,000 for adherent cells) are plated into individual wells of a 96-well culture plate in 0.1 ml of culture media. Diluted compounds are added to individual wells containing pre-plated cells (final volume 0.2 ml) and incubated at 37° C. for 24 to 72 h. Wells receiving vehicle alone acted as a control.
# MTT (viability) assay. MTT reagent (20 μl of 5 mg/ml stock solution, Sigma) is added to the cells and the plates are incubated at 37° C. for another 2 h. Cells are lysed by adding 100 μl of lysis buffer (20% SDS in 50% N,N-dimethylformamide (Sigma) adjusted to pH 4.7 by 80% acetic acid and 1 M HCl such that the final concentration of acetic acid is 2.5% and HCl is 2.5%) into each well and incubated for 6 h. The OD570 of each sample is determined by using a SPECTRA MAX M2 plate reader (Molecular Devices). The OD in control and treated wells is used as an estimate of the effect of compounds on cell growth and survival.
# Cell lines. […] A375 melanoma cells were grown and maintained in the same media. Ba/F3 parental cells were grown in RPMI 1640 containing 10% heat inactivated fetal bovine serum and 2 mM glutamine supplemented with IL-3 (1 ng/ml) while Ba/F3 cells stably expressing Bcr/Abl or the T315I mutant of Bcr/Abl were grown in RPMI 1640 containing 10% heat inactivated fetal bovine serum and 2 mM glutamine in the absence of IL-3. Normal human dermal fibroblasts (NHDF) were obtained from Cambrex (Walkersville, Md.) and grown in specially formulated media (obtained through Cambrex) with 20% fetal calf serum.
# IC50 determinations. The anti-tumor activity of certain compounds of the present invention against MM-1 cell lines was investigated and the IC50 values calculated (FIGS. 33A-F). In a typical experiment, MM-1 cell lines were incubated with a range of compound concentrations for 72 h to determine the concentration required to inhibit cell growth or induce apoptosis by 50% (IC50). MTT assays as described above were used to conduct this analysis.
compound,measurement,setting,value
CCC[C@H](NC(=O)/C(C#N)=C/c1cccc(Br)n1)c1ccccc1 [Degrasyn],IC50,"FIG. 21, anti-tumor activity, read-out: IC50 for MM-1 cells",1.4 µM
same,IC50,"FIG. 31, 72 h, MTT, average of 4 determinations, read-out: IC50, MM-1 cells",~1.2 µM
